Results reported in patent publication US11702422B2, “Imidazopyridazines as modulators of IL-17” (Janssen Pharmaceutica NV, priority 2020, dated 2023).

Tests used:
[1] = test system: IL-17A-induced G-CSF production in human normal keratinocyte (NHK); experiment: NHK Assay: IL-17A-induced G-CSF production in human normal keratinocytes; format: cell-based; settings: Homo sapiens, Keratinocyte, 24 h, adult normal human keratinocytes, IL-17A 5 ng/mL, simple average if tested more than once
How it was run: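 G-CSF released by primary adult human keratinocytes after 24 h at 37° C was quantified by HTRF via standard curve to give IC50. Stimulus was 5 ng/mL IL-17A pre-mixed 1 h at rt with compound dilutions, in 5% FBS and 0.2% DMSO. Cell viability was assessed in parallel with CellTiter-Glo.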

[2] = target: IL-17A(FLAG-Tagged): IL-17RA(His-Tagged) (Homo sapiens, UniProt Q16552, K93Q); experiment: IL-17A(FLAG-Tagged): IL-17RA(His-Tagged) Binding Disruption Eu-HTRF Assay; settings: IL-17A/IL-17RA binding disruption, simple average if tested more than once
UniProt Q16552, sequence (Q16552 with tags, fused parts or gaps K93Q): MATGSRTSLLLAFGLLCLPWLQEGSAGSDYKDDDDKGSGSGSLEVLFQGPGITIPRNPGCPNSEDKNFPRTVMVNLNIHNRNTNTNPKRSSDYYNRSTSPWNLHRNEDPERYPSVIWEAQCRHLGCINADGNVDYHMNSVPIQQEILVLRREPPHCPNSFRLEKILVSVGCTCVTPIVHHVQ
How it was run: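 IC50 comes from a one-site competition fit of the HTRF 665/620 nm ratio. Compound dilutions (2-fold, 22 points) were held 1 h rt with FLAG-tagged IL-17A dimer, then His-tagged IL-17RA plus Eu-cryptate anti-FLAG and D2 anti-His antibodies were added for 2 h rt.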

Compound	IC50 [2]	IC50 [1]
O=C(CCC(F)(F)F)N[C@@H](c1cnn2cc([C@@H](NC(=O)c3ccnc(OC4CCC4)c3)C3CCC(F)(F)CC3)nc2c1)C1CC1 [Example 181, 2-Cyclobutoxy-N—((S)-(7-((R)-cyclopropyl(4,4,4-trifluorobutanamido)methyl)imidazo[1,2-b]pyridazin-2-yl)(4,4-difluorocyclohexyl)methyl)isonicotinamide]	80 nM	460 nM
O=C(CCC(F)(F)F)N[C@@H](c1cnn2cc([C@@H](NC(=O)c3ccccc3C(F)F)C3CCC(F)(F)CC3)nc2c1)C1CC1 [Example 187, N—((S)-(7-((R)-Cyclopropyl(4,4,4-trifluorobutanamido)methyl)imidazo[1,2-b]pyridazin-2-yl)(4,4-difluorocyclohexyl)methyl)-2-(difluoromethyl)benzamide]	260 nM	730 nM
O=C(CCC(F)(F)F)N[C@@H](c1cnn2cc([C@@H](NC(=O)c3ccnc4c3CCC4)C3CCC(F)(F)CC3)nc2c1)C1CC1 [Example 191, N—((S)-(7-((R)-Cyclopropyl(4,4,4-trifluorobutanamido)methyl)imidazo[1,2-b]pyridazin-2-yl)(4,4-difluorocyclohexyl)methyl)-6,7-dihydro-5H-cyclopenta[b]pyridine-4-carboxamide]	290 nM	1100 nM
O=C(CCC(F)(F)F)N[C@@H](c1cnn2cc([C@@H](NC(=O)c3cccnc3)C3CCC(F)(F)CC3)nc2c1)C1CC1 [Example 192, N—((S)-(7-((R)-Cyclopropyl(4,4,4-trifluorobutanamido)methyl)imidazo[1,2-b]pyridazin-2-yl)(4,4-difluorocyclohexyl)methyl)nicotinamide]	240 nM	1200 nM
O=C(CCC(F)(F)F)N[C@@H](c1cnn2cc([C@@H](NC(=O)c3cccnc3C3CC3)C3CCC(F)(F)CC3)nc2c1)C1CC1 [Example 193, 2-Cyclopropyl-N—((S)-(7-((R)-cyclopropyl(4,4,4-trifluorobutanamido)methyl)imidazo[1,2-b]pyridazin-2-yl)(4,4-difluorocyclohexyl)methyl)nicotinamide]	500 nM	1300 nM
O=C(CCC(F)(F)F)N[C@@H](c1cnn2cc([C@@H](NC(=O)c3ccncc3F)C3CCC(F)(F)CC3)nc2c1)C1CC1 [Example 195, N—((S)-(7-((R)-Cyclopropyl(4,4,4-trifluorobutanamido)methyl)imidazo[1,2-b]pyridazin-2-yl)(4,4-difluorocyclohexyl)methyl)-3-fluoroisonicotinamide]	580 nM	1600 nM
COc1ccnc(C(=O)N[C@H](c2cn3ncc([C@H](NC(=O)CCC(F)(F)F)C4CC4)cc3n2)C2CCC(F)(F)CC2)c1 [Example 196, N—((S)-(7-((R)-Cyclopropyl(4,4,4-trifluorobutanamido)methyl)imidazo[1,2-b]pyridazin-2-yl)(4,4-difluorocyclohexyl)methyl)-4-methoxypicolinamide]	480 nM	1700 nM
O=C(CCC(F)(F)F)N[C@@H](c1cnn2cc([C@@H](NC(=O)c3cc(OCC(F)F)ccn3)C3CCC(F)(F)CC3)nc2c1)C1CC1 [Example 197, N—((S)-(7-((R)-Cyclopropyl(4,4,4-trifluorobutanamido)methyl)imidazo[1,2-b]pyridazin-2-yl)(4,4-difluorocyclohexyl)methyl)-4-(2,2-difluoroethoxy)picolinamide]	300 nM	1700 nM
O=C(CCC(F)(F)F)N[C@@H](c1cnn2cc([C@@H](NC(=O)c3cc(C(F)(F)F)ccn3)C3CCC(F)(F)CC3)nc2c1)C1CC1 [Example 198, N—((S)-(7-((R)-Cyclopropyl(4,4,4-trifluorobutanamido)methyl)imidazo[1,2-b]pyridazin-2-yl)(4,4-difluorocyclohexyl)methyl)-4-(trifluoromethyl)picolinamide]	410 nM	1800 nM
Cc1ncccc1C(=O)N[C@H](c1cn2ncc([C@H](NC(=O)CCC(F)(F)F)C3CC3)cc2n1)C1CCC(F)(F)CC1 [Example 200, N—((S)-(7-((R)-Cyclopropyl(4,4,4-trifluorobutanamido)methyl)imidazo[1,2-b]pyridazin-2-yl)(4,4-difluorocyclohexyl)methyl)-2-methylnicotinamide]	760 nM	2200 nM

Continued, in another order:

IC50 [2]	Compound	IC50 [1]
45 nM	O=C(CCC(F)(F)F)N[C@@H](c1cnn2cc([C@@H](NC(=O)c3ccnc(OCC(F)F)c3)C3CCC(F)(F)CC3)nc2c1)C1CC1 [Example 179, N—((S)-(7-((R)-Cyclopropyl(4,4,4-trifluorobutanamido)methyl)imidazo[1,2-b]pyridazin-2-yl)(4,4-difluorocyclohexyl)methyl)-2-(2,2-difluoroethoxy)isonicotinamide]	450 nM
130 nM	O=C(CCC(F)(F)F)N[C@@H](c1cnn2cc([C@@H](NC(=O)c3cccc(OCC4CC4)c3)C3CCC(F)(F)CC3)nc2c1)C1CC1 [Example 180, N—((S)-(7-((R)-Cyclopropyl(4,4,4-trifluorobutanamido)methyl)imidazo[1,2-b]pyridazin-2-yl)(4,4-difluorocyclohexyl)methyl)-3-(cyclopropylmethoxy)benzamide]	450 nM
85 nM	O=C(CCC(F)(F)F)N[C@@H](c1cnn2cc([C@@H](NC(=O)c3ccc(F)cc3)C3CCC(F)(F)CC3)nc2c1)C1CC1 [Example 182, N—((S)-(7-((R)-Cyclopropyl(4,4,4-trifluorobutanamido)methyl)imidazo[1,2-b]pyridazin-2-yl)(4,4-difluorocyclohexyl)methyl)-4-fluorobenzamide]	510 nM
69 nM	O=C(CCC(F)(F)F)N[C@@H](c1cnn2cc([C@@H](NC(=O)c3cncc(OCC(F)F)c3)C3CCC(F)(F)CC3)nc2c1)C1CC1 [Example 183, N—((S)-(7-((R)-Cyclopropyl(4,4,4-trifluorobutanamido)methyl)imidazo[1,2-b]pyridazin-2-yl)(4,4-difluorocyclohexyl)methyl)-5-(2,2-difluoroethoxy)nicotinamide]	520 nM
110 nM	COc1cc(C(=O)N[C@H](c2cn3ncc([C@H](NC(=O)CCC(F)(F)F)C4CC4)cc3n2)C2CCC(F)(F)CC2)ccn1 [Example 184, N—((S)-(7-((R)-Cyclopropyl(4,4,4-trifluorobutanamido)methyl)imidazo[1,2-b]pyridazin-2-yl)(4,4-difluorocyclohexyl)methyl)-2-methoxyisonicotinamide]	590 nM
45 nM	CC(C)Oc1cncc(C(=O)N[C@H](c2cn3ncc([C@H](NC(=O)CCC(F)(F)F)C4CC4)cc3n2)C2CCC(F)(F)CC2)c1 [Example 185, N—((S)-(7-((R)-Cyclopropyl(4,4,4-trifluorobutanamido)methyl)imidazo[1,2-b]pyridazin-2-yl)(4,4-difluorocyclohexyl)methyl)-5-isopropoxynicotinamide]	690 nM
110 nM	O=C(CCC(F)(F)F)N[C@@H](c1cnn2cc([C@@H](NC(=O)c3ccnc(OC(F)F)c3)C3CCC(F)(F)CC3)nc2c1)C1CC1 [Example 186, N—((S)-(7-((R)-Cyclopropyl(4,4,4-trifluorobutanamido)methyl)imidazo[1,2-b]pyridazin-2-yl)(4,4-difluorocyclohexyl)methyl)-2-(difluoromethoxy)isonicotinamide]	720 nM
150 nM	N#Cc1cccc(C(=O)N[C@H](c2cn3ncc([C@H](NC(=O)CCC(F)(F)F)C4CC4)cc3n2)C2CCC(F)(F)CC2)c1 [Example 188, 3-Cyano-N—((S)-(7-((R)-cyclopropyl(4,4,4-trifluorobutanamido)methyl)imidazo[1,2-b]pyridazin-2-yl)(4,4-difluorocyclohexyl)methyl)benzamide]	750 nM
230 nM	COc1cncc(C(=O)N[C@H](c2cn3ncc([C@H](NC(=O)CCC(F)(F)F)C4CC4)cc3n2)C2CCC(F)(F)CC2)c1 [Example 189, N—((S)-(7-((R)-Cyclopropyl(4,4,4-trifluorobutanamido)methyl)imidazo[1,2-b]pyridazin-2-yl)(4,4-difluorocyclohexyl)methyl)-5-methoxynicotinamide]	810 nM
220 nM	O=C(CCC(F)(F)F)N[C@@H](c1cnn2cc([C@@H](NC(=O)c3ccncc3)C3CCC(F)(F)CC3)nc2c1)C1CC1 [Example 190, N—((S)-(7-((R)-Cyclopropyl(4,4,4-trifluorobutanamido)methyl)imidazo[1,2-b]pyridazin-2-yl)(4,4-difluorocyclohexyl)methyl)isonicotinamide]	820 nM
140 nM	O=C(CCC(F)(F)F)N[C@@H](c1cnn2cc([C@@H](NC(=O)c3ccnc(C(F)(F)F)c3)C3CCC(F)(F)CC3)nc2c1)C1CC1 [Example 194, N—((S)-(7-((R)-Cyclopropyl(4,4,4-trifluorobutanamido)methyl)imidazo[1,2-b]pyridazin-2-yl)(4,4-difluorocyclohexyl)methyl)-2-(trifluoromethyl)isonicotinamide]	1600 nM
230 nM	O=C(CCC(F)(F)F)N[C@@H](c1cnn2cc([C@@H](NC(=O)c3cc(C(F)F)ncn3)C3CCC(F)(F)CC3)nc2c1)C1CC1 [Example 199, N—((S)-(7-((R)-Cyclopropyl(4,4,4-trifluorobutanamido)methyl)imidazo[1,2-b]pyridazin-2-yl)(4,4-difluorocyclohexyl)methyl)-6-(difluoromethyl)pyrimidine-4-carboxamide]	2000 nM
